Values of other authors, collected in patent publication US12691066B2, “Dual-targeting biomimetic liposome with elemene (ELE) and cabazitaxel (CTX), and preparation method and use thereof” (HANGZHOU NORMAL UNIVERSITY, priority 2021, dated 2026).

solubility in ethanol: soluble | solubility in water: almost insoluble
Structure (SMILES): CO[C@H]1C(=O)[C@]2(C)[C@@H](OC)C[C@H]3OC[C@@]3(OC(C)=O)[C@H]2[C@H](OC(=O)c2ccccc2)[C@]2(O)C[C@H](OC(=O)[C@H](O)[C@@H](NC(=O)OC(C)(C)C)c3ccccc3)C(C)=C1C2(C)C [Cabazitaxel]
